Test results reported in US20140242093A1, “METHODS AND COMPOSITIONS FOR MODULATING THE INNATE IMMUNE RESPONSE AND/OR MYOGENESIS IN A MAMMALIAN SUBJECT” (FRED HUTCHINSON CANCER RESEARCH CENTER, priority 2011, published 2014).

Tested on: control human primary myoblasts
Test: Expression microarray of primary myoblasts transduced with lentivirus carrying DUX4-fl, DUX4-s or GFP
Protocol: Primary human myoblasts were collected and cultured as previously described (Snider et al., 2010). Primary myoblasts were maintained at or below 70% confluency for proliferation. For differentiation, cells were allowed to reach 95-100% confluency in growth medium. Once confluency was reached, the cells were changed to differentiation medium (F10 media supplemented with 1% horse serum, 10 μg/mL insulin, and 10 μg/mL transferrin, penicillin/streptomycin) and maintained for 4 days. Human RD cells were grown in DMEM in 10% bovine calf serum (Hyclone) and penicillin/streptomycin. The primary myoblasts were transduced with lentivirus carrying DUX-fl, DUX4- or GFP (MOI=15).
Expression microarrays were performed on the transduced cells at 24 hours after transduction as follows. […] Samples were analyzed by Illumina Human Whole Genome microarrays. Probe intensities were corrected, normalized, and summarized by the Lumi package of Bioconductor (Du et al., 2008). Differentially expressed genes were identified by the LIMMA package of Bioconductor (Wettenhall and Smyth, 2004). Gene set enrichment analysis (GSEA) was performed using the Bioconductor GOstats package (Falcon and Gentleman, 2007).

What does the source list for “DUX4-fl: full-length DUX4 protein (SEQ ID NO:110), expressed from lentiviral or pCS2 vectors or in vitro translated”?
fc of MYPOP (expression array) (Refseq NM_001012643.2): −1.053; PRAMEF5 expression fc (Refseq NM_001013407.1): 7.35; HNRNPCL1 expression fc (Refseq NM_001013631.1): 3.484; RFPL4B expression fc (Refseq NM_001013734.2): 8.34; ODF3B fc (Refseq NM_001014440.2): −1.1; DNAJC25 expression fc (Refseq NM_001015882.2): 1.995; KCNK2 fc (Refseq NM_001017425.2): −1.154; CCDC58 expression fc (Refseq NM_001017928.2): 2.001; fc of ATP6AP1L (expression array) (Refseq NM_001017971.1): −1.049; SH3PXD2B fc (Refseq NM_001017995.1): −1.101; ZBTB16 expression fc (Refseq NM_001018011.1, cultured human skeletal muscle): −2.037; fc of SERBP1 (expression array) (Refseq NM_001018069.1): −0.241; SOD2 expression fc (Refseq NM_001024466.1, cultured human skeletal muscle): −4.617; fc of RUNX2 (expression array) (Refseq NM_001024630.2): −1.019; CLK1 expression fc (Refseq NM_001024646.1): 1.84; fc of TGFBR2 (expression array) (Refseq NM_001024847.1): −1.017; TSPAN4 fc (Refseq NM_001025235.1): −1.175; fc of RFX5 (expression array) (Refseq NM_001025603.1): −1.052; PSRC1 fc (Refseq NM_001032290.1): −1.126; OAS1 expression fc (Refseq NM_001032409.1, cultured human skeletal muscle): −4.607; ENTPD8 expression fc (Refseq NM_001033113.1): 4.073; RHOT1 fc (Refseq NM_001033566.1): −1.074; CYFIP2 fc (Refseq NM_001037333.1): −1.081; fc of PHYH (expression array) (Refseq NM_001037537.1): −1.007; fc of EFEMP1 (expression array) (Refseq NM_001039348.1): −1.03; PRAMEF10 expression fc (Refseq NM_001039361.1): 6.064; ETNK1 expression fc (Refseq NM_001039481.1): 1.892; LOC440053 expression fc (Refseq NM_001039615.1): 3.919; CBLN3 fc (Refseq NM_001039771.2): −1.144; HEY1 expression fc (Refseq NM_001040708.1): 2.18; fc of UHRF1 (expression array) (Refseq NM_001048201.1): −0.2091; DBNDD2 expression fc (Refseq NM_001048223.1): 2.987; NCOR2 fc (Refseq NM_001077261.1): −1.177; fc of NFKB2 (expression array) (Refseq NM_001077493.1): −1.011; fc of SLC29A1 (expression array) (Refseq NM_001078174.1): −0.5111; DYNC2H1 expression fc (Refseq NM_001080463.1): 3.721; PRAMEF12 expression fc (Refseq NM_001080830.1): 7.802; FRG2B expression fc (Refseq NM_001080998.1): 1.993; DEFB103A expression fc (Refseq NM_001081551.2): 6.442; CPSF4 fc (Refseq NM_001081559.1): −1.171; fc of GPD2 (expression array) (Refseq NM_001083112.1): −0.3652; fc of GPR1 (expression array) (Refseq NM_001098199.1): −1.054; HLA-F expression fc (Refseq NM_001098479.1, cultured human skeletal muscle): −1.932; RFPL3 expression fc (Refseq NM_001098535.1): 8.144; PRR4 expression fc (Refseq NM_001098538.1): 3.562; FAM156B fc (Refseq NM_001099684.1): −1.113; PRAMEF19 expression fc (Refseq NM_001099790.1): 2.336; PRAMEF20 expression fc (Refseq NM_001099852.1): 4.795; PRAMEF14 expression fc (Refseq NM_001099854.1): 3.186; PRAMEF21 expression fc (Refseq NM_001100114.1): 2.487; LOC729384 expression fc (Refseq NM_001105522.1): 6.832; KHDC1L expression fc (Refseq NM_001126063.2): 8.012; CSAG3 expression fc (Refseq NM_001129826.1): 5.871; LOC399940 expression fc (Refseq NM_001136118.1): 4.727; LOC440563 expression fc (Refseq NM_001136561.1): 5.312; FAM90A7 expression fc (Refseq NM_001136572.1): 3.199; CYCSL1 expression fc (Refseq NR_001561.1): 2.506; MGC10997 expression fc (Refseq NR_001565.1): 2.426; FTHL3 expression fc (Refseq NR_002201.1, cultured human skeletal muscle): −2.577; FTHL11 expression fc (Refseq NR_002204.1, cultured human skeletal muscle): −2.085; FTHL12 expression fc (Refseq NR_002205.1, cultured human skeletal muscle): −1.948; RPPH1 expression fc (Refseq NR_002312.1): 2.037; RFPL1S expression fc (Refseq NR_002727.1): 8.396; SNORD56 expression fc (Refseq NR_002739.1): 1.855; fc of TRIM78P (expression array) (Refseq NR_002777.2): −0.9991; HNRPA1L-2 expression fc (Refseq NR_002944.2): 1.921; RMRP expression fc (Refseq NR_003051.2): 2.267; fc of LOC400759 (expression array) (Refseq NR_003133.1): −0.7622; HNRPDL expression fc (Refseq NR_003249.1): 2.175; SDHALP1 expression fc (Refseq NR_003264.1): 3.276; RN5S9 expression fc (Refseq NR_023371.1): 4.191; KIAA0114 expression fc (Refseq NR_024031.1): 1.841; NCRNA00092 expression fc (Refseq NR_024129.1): 2.395; MIR503 expression fc (Refseq NR_030228.1): 1.91; MIR2278 expression fc (Refseq NR_031755.1): 2.412; USP41 fc (Refseq XM_036729.5): −1.127; TRIM64 expression fc (Refseq XM_061890.11): 4.943; LOC136157 expression fc (Refseq XM_069743.3): 8.299; LOC196120 expression fc (Refseq XM_114987.3): 8.179; LOC646066 expression fc (Refseq XM_116384.2): 4.391
